Where two headings read alike, the source gives them in different places.
Legend:
[1] = humans, reference (7); cited from earlier work
[2] = rat liver
Excerpt: The tissue from the control animals (water) served as the 100% of the toxin remaining in the tissue. The animals receiving: • a.

SMILES: N[C@@H](CCC(=O)N[C@@H](CS)C(=O)NCC(=O)O)C(=O)O [Plain glutathione, glutathione]
- absorption after oral ingestion [1]: not absorbed
- removal of toxin ([2]; CO-60, intravenous administration): 70%
- removal of toxin ([2]; CO-60, oral administration): 10%

SMILES: COc1ccccc1OCC(O)COC(N)=O (centres unmarked) [methocarbolmol]
- tolerability in the animal (canine with myoclonus, initial symptom management): neither of which was tolerated

SMILES: CN1C(=O)CN=C(c2ccccc2)c2cc(Cl)ccc21 [valium]
- tolerability in the animal (dog, in vivo): neither of which was tolerated

From US20100166846A1 (priority 2008, published 2010)
